Legend:
[1] = tested on: Compound 29-resistant DENV2-NGC EGFP-replicon cells; assay: Compound-resistant DENV2-NGC EGFP-replicon cells; assay type: cell-based; settings: Dengue virus, DENV2, 48 h, read-out: EC50, Compound 29-resistant DENV2-NGC EGFP-replicon cells
[2] = tested on: clinical DENV2 isolate MY97-10340; settings: A549, 48 hr, read-out: DENV2 HCI, EC50 (converted); cited from earlier work
[3] = target: T1, DENV3 FL NS5 (Dengue virus type 3, UniProt Q6YMS4); settings: read-out: DENV FL NS5 de novo initiation FAPA, IC50, DENV3; cited from earlier work
T1 construct: 100 nM DENV FL NS5 protein was added; made in house
T1 sequence (Q6YMS4 2491-3390): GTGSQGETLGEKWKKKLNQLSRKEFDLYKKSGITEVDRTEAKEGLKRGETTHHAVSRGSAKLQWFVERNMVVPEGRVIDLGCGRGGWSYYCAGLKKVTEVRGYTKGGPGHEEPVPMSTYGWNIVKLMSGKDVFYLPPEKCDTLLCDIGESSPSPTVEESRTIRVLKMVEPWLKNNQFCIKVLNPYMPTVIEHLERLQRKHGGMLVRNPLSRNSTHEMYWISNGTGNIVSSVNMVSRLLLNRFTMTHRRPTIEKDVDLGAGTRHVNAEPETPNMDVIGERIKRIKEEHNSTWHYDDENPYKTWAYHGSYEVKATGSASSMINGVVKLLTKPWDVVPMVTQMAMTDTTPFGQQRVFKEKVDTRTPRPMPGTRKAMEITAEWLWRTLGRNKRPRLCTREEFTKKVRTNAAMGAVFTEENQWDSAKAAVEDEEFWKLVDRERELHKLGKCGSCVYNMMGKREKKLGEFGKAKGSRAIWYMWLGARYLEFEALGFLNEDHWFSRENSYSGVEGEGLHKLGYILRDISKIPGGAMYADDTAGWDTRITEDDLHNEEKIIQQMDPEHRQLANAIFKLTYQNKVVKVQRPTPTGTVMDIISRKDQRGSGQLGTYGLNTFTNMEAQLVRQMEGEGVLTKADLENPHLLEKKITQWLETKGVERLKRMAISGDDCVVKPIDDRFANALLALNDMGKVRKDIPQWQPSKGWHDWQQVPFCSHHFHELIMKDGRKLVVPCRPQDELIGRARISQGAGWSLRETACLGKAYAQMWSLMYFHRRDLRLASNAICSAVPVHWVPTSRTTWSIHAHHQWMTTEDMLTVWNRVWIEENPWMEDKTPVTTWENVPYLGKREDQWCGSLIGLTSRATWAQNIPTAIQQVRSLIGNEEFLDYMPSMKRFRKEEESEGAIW

[4] = in vitro; assay type: cell-based; settings: human; 4–5 days; read-out: CC50, HepG2
[5] = tested on: HuH-7; assay: in vitro; assay type: cell-based; settings: HuH-7 (DENV2 replicon cells); 48 hr; ATP levels
Experimental: A549, BHK-21 and Huh7 cells bearing stable DENV2 sub-genomic replicon or transiently electroporated DENV2-NGC replicon or infectious virus cDNAs were seeded into 384-well microplate (3,000 cells per well). After over-night incubation at 37°C with 5% CO2, the cells were treated with 2-fold serially diluted compounds, starting from 20 or 50 μM. At 48 hr of post-incubation, renilla luciferase activities were measured with the ViviRen live-cell substrate (Promega, USA) according to the manufacturer’s protocol. CellTiter-Glo reagent (Promega, USA) was then added to determine cytotoxic effects of compounds. For the HCV replicon assay, Huh-7.5 cells harboring the HCV replicon were seeded into a 96-well microplate (20,000 cells per well). At 48 hr after compound treatment, cells were assayed for firefly luciferase activity by using a Bright-Glo luciferase assay (Promega, USA). NITD-008, a nucleoside inhibitor of DENV and HCV was added as a control.

[6] = target: T2, DENV2 FL NS5 (Dengue virus type 2, UniProt P14340); assay: DENV2 FL NS5 de novo initiation FAPA assay; assay type: biochemical; settings: one experiment; read-out: DENV FL NS5 de novo initiation FAPA, IC50, DENV2
T2 construct: made in house
Experimental: DENV1-4 FL NS5 dnI assays were performed as described previously. Briefly, compounds from 0–20 or -100 μM concentrations are two-fold serially diluted into 384-well black opaque plates (Corning Costar), after which 100 nM DENV FL NS5 protein was added and the plates incubated at RT for 20 min. RNA and ATTO-CTP, ATP, GTP and UTP were then added and the plates incubated for another 120 min. […] For order-of-addition experiments, DENV4 FL NS5 was incubated for one hour at RT with RNA, ATP, and GTP or RNA, ATP, GTP and ATTO-CTP, followed by exposure to serially diluted compounds for 20 min at RT. The missing components (ATTO-CTP and UTP or UTP alone) were added and the reactions continued for 120 min after which STOP buffer was added as before. All datapoints were performed in duplicate wells. Each compound was tested at least twice.
2 Co mpound testing with DENV dn I FAPA assays. Final dn I assa y reaction mixtures
3 contained 100 nM DENV 5 ´UTR-L-3´UTR IVT RNA, 20 µ M ATP, 20 µM GTP, 20 µM
4 UTP, 5 µM ATTO -CTP, and 100 nM of DENV FL NS5 protein in 15 µl in assa y buffer
5 comprising 50 mM Tris/ HCl, pH 7.5, 10 mM KCl, 1 mM MgCl2, 0.3 mM MnCl2 (DENV2
6 and 4) or 1 mM MnCl 2 (DENV1 and 3), 0.001% Triton- X-100 and 10 µ M cystein e [ 1] . To
7 perform dose-respons e inhibition measurements, compounds from 0- 20 or - 100 µM
8 concentr ations are two -fold seriall y diluted into 384-well black opaqu e plat es (Corning
9 Costar), after which 100 nM DENV FL NS5 protein was added into resp ect ive wells. The
10 plates wer e sealed, b riefl y shak en and centrif uged at 1500 rpm for 30 sec and incubated at RT
11 for 15 min. Thereafter,RNA and ATTO -CTP, ATP, GTP and UTP were added to the wells to
12 start the reactions. The pl ates wer e re-seal ed, shaken and centrifuged as before, followed b y
13 incubation RT for 120 min.
15 intestinal phosphatase (CIP), re- incubation at RT for 60 min and read on a Tecan Safire II
16 microplate reader. For o r der-of-addition experiments, DENV4 FL NS5 was incubated for one
17 hour at RT with RNA, ATP, and GTP or RNA, ATP, GTP and ATTO-CTP, followed by
18 exposure to seriall y dilut ed compounds for 20 mi n at RT. The missing components (ATTO-
19 CTP and UTP or UTP alone) were added and the reactions continued for 120 min after which
20 STOP buffer was added as before. All datapoints were performed in duplicate wells. Each
21 compound was tested at l east twice.
23 Compound testing in DENV1-4 infected cells by high content imaging. Approximatel y 7
24 × 10^3 A549 cells per well were s eeded into 384-well plates in Ham’s F-12K medium

| Compound | EC50 [1] [µM] | EC50 [2] [µM] | IC50 [3] [µM] | CC50 [4] [µM] | CC50 [5] [µM] | IC50 [6] [µM] |
| --- | --- | --- | --- | --- | --- | --- |
| COc1cccc(S(=O)(=O)NC(=O)c2cc(-c3ccc(C#CCO)s3)c(OC)cc2OC)c1 [Compound 27] | 41.7 | 2.3 | 0.048 | > 50 | > 50 |  |
| COc1cccc(S(=O)(=O)NC(=O)c2cc(-c3ccc(C#CCO)s3)c(OC)cc2C)c1 [Compound 26i] |  |  |  |  |  | 0.086 |
| COc1cc(OC)c(-c2ccc(C#CCO)s2)cc1C(=O)NS(=O)(=O)c1cccc2cccnc12 [Compound 29] | 34 | 14.1 |  | > 50 |  |  |
